The term ED50 denotes the midpoint of the dose-response relation. In general, Kd refers to the constant that tells how readily two partners part at equilibrium. The IC50 is the midpoint of a concentration-inhibition curve.

“Also recorded” adds a separate entry of the source. Read-outs that look alike come from different tables or passages of the source.

The values that follow come from patent publication US4906638A (priority 1987, dated 1990).

The test system of data set [1] is [^3 H]dextromethorphan receptor. The settings on record: cited from earlier work; for effect on [^3 H]dextromethorphan binding / binding to the dextromethorphan site (in words): central nervous system site; for IC50: read-out: IC50, inhibition of [^3 H]dextromethorphan binding, in vitro.
Data set [2] relates to maximal electroshock seizures (tonic hindlimb extension). Put plainly: maximal electroshock (MES) procedure for mice, transauricular (Example I). Format: in vivo. The settings on record: for mice protected: 500 mg/kg i.p. As for the experimental part: For combination studies two separate injections were administered. […] The absence of tonic hindlimb extension was taken as evidence for seizure protection.
In general terms: The maximal electroshock test induces tonic seizures with an electrical stimulus.

Data set [3] deals with CNS side effects (rotorod ataxia). Kind of data set: rotorod-ataxia toxicity test (CNS side effects). The settings on record: maximal therapeutic dose of dextromethorphan. The source says:
Mice that were unable to maintain equilibrium for one continuous minute, given 3 opportunities were scored as ataxic.
A general note: Falling from the rotarod earlier than controls is read as motor impairment.

Data set [4] deals with N-methyl-D-aspartate-induced seizures. Kind of data set: N-methyl-D-aspartate (NMDA) induced convulsions in mice. The class given is in vivo, mice (male CF-1). The settings on record: for % Protected: 30 min before NMDA 250 mg/kg; for protection against N-methyl-D-asparate-induced seizures (in words): i.p. As for the experimental part:
When mice (male CF-1; 25-30 g) are administered NMDA (250 mg/kg; IP) animals typically respond with seizure activity consisting of an initial staring, followed in rapid order by hindlimb scratching, increased locomotor activity, rearing behavior, clonic seizures, tonic extension and death.
All drugs were dissolved in saline (0.9%; w/v) and delivered by intraperitoneal injection in a volume of 1.0% (w/v) of body weight.

Data set [5] concerns maximal electroshock induced seizures. Put plainly: maximal electroshock (MES) induced seizures in mice (Example II). Format: in vivo, mice (male CF-1). The settings on record: for % Protected: 30 min before testing. As for the experimental part: All drugs were dissolved in saline (0.9%; w/v) and delivered intraperitoneally in a volume equal to 1 percent of body weight. Animals failing to show tonic hindlimb extension were scored as protected from MES-induced convulsions.

The subject of data set [6] is [^3 H]TCP-labeled-NMDA-linked receptor. The settings on record: cited from earlier work.
In data set [7] the test system is transauricular maximal electroshock seizure (MES). The settings on record: cited from earlier work.
Data set [8] concerns calcium-induced spasms in smooth muscle. The settings on record: cited from earlier work.
For data set [9] the following is noted: following 20 to 60 mg dextromethorphan p.o. in humans; cited from earlier work.
Data set [10] is described as follows: observed signs of toxicity in mice after ethosuximide. The class given is in vivo. The settings on record: 500 mg/kg i.p.
For data set [11] the following is noted: rats, dogs and humans; cited from earlier work.

In the case of `CCC1(c2ccccc2)C(=O)NC(=O)NC1=O` [phenobarbital], the “effect on [^3 H]dextromethorphan binding / binding to the dextromethorphan site (in words)” value in data set [1] was “do not inhibit or enhance binding”.

With `COc1ccc2c(c1)[C@]13CCCC[C@@H]1[C@H](C2)N(C)CC3` [dextromethorphan], the “% Mice Protected” value turned out to be 0% in data set [2] (0 mg/kg CBM + 10 mg/kg DM (DM alone)) and 8% in data set [2] (0 mg/kg CBM + 20 mg/kg DM (DM alone)). For the same compound, the “protection when administered alone (in words)” value in [2] (10 and 20 mg/kg, with 0 CBM) is “little or no protection”. Also, the “% Protected” value in data set [2] (DM 5 mg/kg i.p., one-half hour before MES) was 0%; in data set [2] (DM 10 mg/kg i.p., one-half hour before MES), 0%; in data set [2] (DM 20 mg/kg i.p., one-half hour before MES), 8%; in data set [2] (DM 25 mg/kg i.p., one-half hour before MES), 25%; in data set [2] (DM 30 mg/kg i.p., one-half hour before MES), 37.5%; in [2] (DM 35 mg/kg i.p., one-half hour before MES), 75%. Besides, the “% Protected” value was 87.5% in data set [2] (DM 45 mg/kg i.p., one-half hour before MES); 100% in data set [2] (DM 55 mg/kg i.p., one-half hour before MES); 33% in [4] (DM 10 mg/kg i.p. alone); 0% in data set [5] (DM 6.6 mg/kg i.p. alone); 16.6% in data set [5] (DM 10 mg/kg i.p. alone); 50% in [5] (DM 27 mg/kg i.p. alone). In addition, the “% Protected” value in data set [5] (DM 30 mg/kg i.p. alone) was determined as 66.6%. In addition, the ED50 in data set [2] (Mus musculus, ip, 0.5 h, DM alone, i.p., one-half hour before MES, range in parentheses, read-out: ED50) is 29.2 mg/kg. Also, in data set [2] (alone, i.p., one-half hour before MES), the “anticonvulsant activity (in words)” value is “dose dependent anticonvulsant activity”. In addition, the “increment in carbamazepine's CNS side effects (in words)” value in [3] was “little increment in carbamazepine's CNS side effects”. In [4], the “protection against N-methyl-D-asparate-induced seizures (in words)” value was “afforded protection”. For the same compound, the “effect of dextromethorphan on anticonvulsant activity of CPP (in words)” value in data set [5] (low vs higher doses of dextromethorphan combined with CPP) is listed as “readily apparent only when low doses of dextromethorphan were administered in combination with anticonvulsant doses of CPP; also recorded: higher doses of dextromethorphan were either ineffective to increase the anticonvulsant activity of CPP or, partially attenuated the activity”. In data set [1] (read-out: Kd, high affinity binding of [^3 H]dextromethorphan, homogenates of guinea pig, rat and mouse lower brainstem), the Kd is below 0.02 µM. Moreover, in data set [6], the “binding at phencyclidine-labeled/N-methyl-D-asparate linked receptors (in words)” value is listed as “bind at phencyclidine-labeled/N-methyl-D-asparate linked receptors”. Further, in data set [7] (30 mg/kg, by itself), the “protection against transauricular maximal electroshock seizure (in words)” value is listed as “provide protection against transauricular maximal electroshock seizure (MES)”. Further, the “protection time against MES compared with dilantin (in words)” value in data set [7] (standard testing conditions) is recorded as “somewhat longer protection time against MES than that exhibited by dilantin”. The “block of calcium-induced spasms in smooth muscle (in words)” value in data set [8] is “block calcium-induced spasms in smooth muscle”. Further, in data set [9], the absolute plasma levels entry is “five”.

For `CN1[C@@H]2CC[C@H]1C[C@@H](OC(c1ccccc1)c1ccccc1)C2` [benztropine], in data set [1], the “effect on [^3 H]dextromethorphan binding / binding to the dextromethorphan site (in words)” value was “bind to the same central nervous system site”.

As for `CN1C(=O)CN=C(c2ccccc2)c2cc(Cl)ccc21` [diazepam], the “effect on [^3 H]dextromethorphan binding / binding to the dextromethorphan site (in words)” value in data set [1] was “do not inhibit or enhance binding”.

Regarding `OCCN1CCN(CCCN2c3ccccc3Sc3ccc(C(F)(F)F)cc32)CC1` [fluphenazine], the “effect on [^3 H]dextromethorphan binding / binding to the dextromethorphan site (in words)” value in data set [1] is recorded as “bind to the same central nervous system site”.

In the case of `CC(CN1c2ccccc2Sc2ccccc21)N(C)C` (centres unmarked) [promethazine], the “effect on [^3 H]dextromethorphan binding / binding to the dextromethorphan site (in words)” value in [1] is recorded as “bind to the same central nervous system site”.

Turning to `c1ccc(C2(N3CCCCC3)CCCCC2)cc1` [phencyclidine], in data set [1], the “effect on [^3 H]dextromethorphan binding / binding to the dextromethorphan site (in words)” value was “do not inhibit or enhance binding”.

In the case of `CN(C)CCCN1c2ccccc2Sc2ccc(Cl)cc21` [chlorpromazine], in data set [1], the “effect on [^3 H]dextromethorphan binding / binding to the dextromethorphan site (in words)” value is on record as “bind to the same central nervous system site”.

In the case of `O=C(OCCOCCN1CCCCC1)N1c2ccccc2Sc2cccnc21` [pipazethate], the “effect on [^3 H]dextromethorphan binding / binding to the dextromethorphan site (in words)” value in data set [1] is on record as “bind to the same central nervous system site”.

Regarding `CCC1(C)CC(=O)NC1=O` (centres unmarked) [Ethosuximide], the figures for the mice protected result in data set [2] (at one half hour) and in data set [2] (one hour after injection) were “one in five” and “none”, respectively. Further, the “signs of sedation, ataxia and gross toxicity” value in data set [10] is “all mice injected showed signs of sedation, ataxia and gross toxicity”.

`COc1ccc2c(c1OC)C(=O)O[C@@H]2[C@H]1c2c(cc3c(c2OC)OCO3)CCN1C` [noscapine]: the “effect on [^3 H]dextromethorphan binding / binding to the dextromethorphan site (in words)” value in [1] is on record as “markedly increased”; in [1] (listed as roscapine), “bind to the same central nervous system site”.

For the compound `CCN(CC)CCOCCOC(=O)C1(c2ccccc2)CCCC1` [carbetapentane], in data set [1], the “effect on [^3 H]dextromethorphan binding / binding to the dextromethorphan site (in words)” value was “bind to the same central nervous system site” and the concentration for half-maximal inhibition (IC50) is 0.001 to 0.075 µM.

As for `CN1CCN(CCCN2c3ccccc3Sc3ccc(C(F)(F)F)cc32)CC1` [trifluorperazine], in data set [1], the “effect on [^3 H]dextromethorphan binding / binding to the dextromethorphan site (in words)” value is given as “bind to the same central nervous system site”.

Regarding `CC(CN(C)C)CN1c2ccccc2Sc2ccccc21` (centres unmarked) [trimeprazine], in data set [1], the “effect on [^3 H]dextromethorphan binding / binding to the dextromethorphan site (in words)” value is listed as “bind to the same central nervous system site”.

Consider `CN1CC[C@@]23CCCC[C@@H]2[C@@H]1Cc1ccc(O)cc13` [dextrorphan], for which the “ratio of dextrorphan to dextromethorphan in plasma and urine” value in [11] is given as “exceeds 100 to 1”.

Turning to `CN1CCN(CCCN2c3ccccc3Sc3ccc(Cl)cc32)CC1` [prochlorperazine], the “effect on [^3 H]dextromethorphan binding / binding to the dextromethorphan site (in words)” value in data set [1] is recorded as “bind to the same central nervous system site”.

Take `OCCN1CCN(CCCN2c3ccccc3C=Cc3ccccc32)CC1` [opipramol]: the “effect on [^3 H]dextromethorphan binding / binding to the dextromethorphan site (in words)” value in data set [1] was “bind to the same central nervous system site”.

As to `c1ccc(C2(c3ccccc3)OC[C@H]([C@@H]3CCCCN3)O2)cc1` [dexoxadrol], the “effect on [^3 H]dextromethorphan binding / binding to the dextromethorphan site (in words)” value in [1] is “do not inhibit or enhance binding”.

Turning to `OCCN1CCN(CCCN2c3ccccc3Sc3ccc(Cl)cc32)CC1` [perphenazine], the “effect on [^3 H]dextromethorphan binding / binding to the dextromethorphan site (in words)” value in [1] is recorded as “bind to the same central nervous system site”.

`C(=C\c1ccccc1)/CN1CCN(C(c2ccccc2)c2ccccc2)CC1` [cinnarizine]: the “effect on [^3 H]dextromethorphan binding / binding to the dextromethorphan site (in words)” value in [1] is reported as “bind to the same central nervous system site”.

`Nc1ccccc1` [phenylamine]: the “effect on [^3 H]dextromethorphan binding / binding to the dextromethorphan site (in words)” value in [1] is recorded as “bind to the same central nervous system site”.

For the compound `O=C(O)C1CN(CCCP(=O)(O)O)CCN1` (centres unmarked) [CPP, 3-(2-carboxypiperazin-4-yl)propyl-1-phosphono acid], the “% Protected” value in data set [4] (CPP 1.5 mg/kg i.p. alone) was determined as 12.5%; in data set [4] (CPP 2.0 mg/kg i.p. alone), 37.5%; in data set [5] (CPP 5 mg/kg i.p. alone), 25%; in [5] (CPP 10 mg/kg i.p. alone), 60%. The “protection against N-methyl-D-asparate-induced seizures (in words)” value in data set [4] is “afforded protection”.

Turning to `OCCN1CCN(CC/C=C2/c3ccccc3Sc3ccc(C(F)(F)F)cc32)CC1` [flupenthinol], in data set [1], the “effect on [^3 H]dextromethorphan binding / binding to the dextromethorphan site (in words)” value was “bind to the same central nervous system site”.

Consider `CCN(CC)CCOC(=O)C1(c2ccccc2)CCCC1` [caramiphen], for which, in data set [1], the “effect on [^3 H]dextromethorphan binding / binding to the dextromethorphan site (in words)” value is listed as “bind to the same central nervous system site” and the IC50 is 0.001 to 0.075 µM.

Regarding `CNC1(c2ccccc2Cl)CCCCC1=O` (centres unmarked) [ketamine], in data set [1], the “effect on [^3 H]dextromethorphan binding / binding to the dextromethorphan site (in words)” value is “do not inhibit or enhance binding”.

Consider `CN(C)CCOCCOC(=O)N1c2ccccc2Sc2ccccc21` [dimethoxanate], for which, in [1], the “effect on [^3 H]dextromethorphan binding / binding to the dextromethorphan site (in words)” value is given as “bind to the same central nervous system site” and the IC50 is 0.001 to 0.075 µM.
